# Laboratory results from ChEMBL document CHEMBL1156955 (Bioorg Med Chem Lett, 2010).
# Legend:
# [1] = AUC (0 to infinity) in mouse at 5 mg/kg, iv; assay type: ADME, organism-based; parameters: time infinity, dose 5 mg/kg, route intravenous; settings: plasma
# [2] = Drug level in tumor of human MDA-MB-361 cells xenografted nude mouse at 25 mg/kg, iv after 8 hrs; assay type: ADME, organism-based, Neoplasm; parameters: dose 25 mg/kg, route intravenous; settings: read-out: Drug uptake
# [3] = Volume of distribution in mouse at 5 mg/kg, iv; assay type: ADME, organism-based; parameters: dose 5 mg/kg, route intravenous; settings: in vivo
# [4] = Drug level in plasma of nude mouse bearing human MDA-MB-361 cells at 25 mg/kg, iv after 8 hrs; assay type: ADME, organism-based; parameters: dose 25 mg/kg, route intravenous; settings: read-out: Drug uptake
smiles,measurement,setting,value
CC(C)N1CCN(C(=O)c2ccc(NC(=O)Nc3ccc(-c4nc(C5CCOCC5)nc(N5C6CCC5COC6)n4)cc3)cc2)CC1,AUC(0-inf),[1],16700 ng·h/mL
same,concentration at 8 h,[2],2470 ng/mL
same,Vd,[3],1.3 L/kg
same,concentration at 8 h,[4],2160 ng/mL
